# Literature values, collected in patent US20160128340A1, “Pest control formulation composed of Beauveria bassiana, Cold Pressed Neem Oil and Refined Pyrethrum Extract, and methods of making and using same” (priority 2014, published 2016).
# Test system: Bemisia tabaci
# Conditions: Bemisia tabaci population collected in a floriculture greenhouse
row,Structure (SMILES),resistance factor at LC50 [fold]
1,CCN(CC)c1nc(C)cc(OP(=S)(OC)OC)n1 [pirimiphos-methyl],18
2,Cc1c(COC(=O)[C@@H]2[C@H](/C=C(\Cl)C(F)(F)F)C2(C)C)cccc1-c1ccccc1 (racemic) [bifenthrin],23
3,CC1(C)C(C=C(Cl)Cl)C1C(=O)OC(C#N)c1cccc(Oc2ccccc2)c1 (stereo not drawn) [α-cypermethrin],80
4,O=[N+]([O-])NC1=NCCN1Cc1ccc(Cl)nc1 [imidacloprid],730
